Laboratory results published in US20250275993A1, “GLYCOSYLATION INHIBITORS AS THERAPEUTICS FOR STROKE” (The Regents of the University of California, priority 2022, published 2025).

Experiments:
[1] = system: complex N-glycans of BCECs; test: Monosaccharide and sialic acid composition analysis of BCECs; type: cell-based, bovine; conditions: fucose 8 hours, mannose 12 hours, galactose 24 hours, Neu5Ac 8 and 24 hours
Procedure: Monosaccharide composition analysis was done using HPAEC-PAD (Thermo-Dionex ICS3000) and nmole amount of each monosaccharide present in 25 μg of protein was calculated. Samples were hydrolyzed using 2 N trifluoroacetic acid (TFA) at 100° C. for 4 hrs. Followed by removal of acid using dry nitrogen flush. To ensure complete removal of acid, samples were co-evaporated twice with 100 μl of 50% isopropyl alcohol (IPA). Finally, the samples were dissolved in Milli-Q water and injected on HPAEC-PAD. Monosaccharide profile was done using Dionex CarboPac PAI column (250 mm×4 mm; with 50 mm×4 mm guard column). An isocratic solvent mixture of 19 mM sodium hydroxide with 0.95 mM sodium acetate was used at a flow rate of 1 ml per minute for 25 mins. Data were acquired using manufacture supplied standard Quad waveform for carbohydrates. All neutral and amino sugars were identified and quantified by comparing with authentic monosaccharide standard mixture consisting of L-fucose, D-galactosamine, D-glucosamine, D-galactose, D-glucose and D-mannosc. Mild acid hydrolysis was used to release sialic acid. Briefly, samples were treated with 2 M acetic acid at 80° C. for 3 hrs followed by removal of excess acid using speed vacuum. […] Known amount of standard Neu5Ac was used to quantify amount of sialic acid in samples.

[2] = system: Calu6; test: Calu6 proliferation assay; type: cell-based; conditions: ManN
Procedure: (§1) Proliferation assays with fibroblasts were done in low-glucose DMEM containing 1% FBS, with or without 10 ng/ml bFGF, or 100 ng/ml human EGF and the assay was ended at day 3. ARPE-19 cells were gently lifted with 0.025% trypsin and plated in RtEGM media (Clonetics) containing 2% FBS, L-glutamine, human bFGF and GA-1000. Once cells were attached to plates, serum-free RtEGM media was used to maintain the cultures. For proliferation assays, 1500 human RPE cells were plated into 96-well plates in low-glucose DMEM containing 1% FBS. A673, U87MG, Calu6 and AML12 cells were grown until confluent and were then harvested and re-suspended in appropriate assay media. For proliferation assays, cells were plated at the density of 1000-2000 cells/well in low-glucose DMEM containing 5% FBS or otherwise stated. Bovine pituitary cells (pituitary folliculostellate cells) were isolated as previously described. For proliferation assays with human epidermal keratinocytes, human DMVECs and human dermal fibroblast cells, 1000 cells/well were plated in low-glucose DMEM containing 1% FBS with or without various growth factors. The assay was ended at day 3 for bovine pituitary cells and at day 4 for all the other cell types. […] Four days later, tumor cell growth was measured by the MTS assay (Promega, Madison, WI), a colorimetric assay that measures metabolic activity of viable cells. […]

[3] = system: 4T1 cells; test: 4T1 proliferation assay (MTS); type: cell-based
[4] = system: NIH3T3 fibroblasts; test: NIH3T3 proliferation assay; type: cell-based, mouse; conditions: alone or in combination with growth factors
Procedure: as §1

[5] = system: human dermal fibroblasts; test: Human dermal fibroblast proliferation assay; type: cell-based; conditions: alone or in combination with growth factors
Procedure: as §1

[6] = system: bFGFR 1 or β1 integrin; test: Western blot of protein molecular mass in non-endothelial cells; type: cell-based; conditions: 400 μM and 2 mM
Procedure: Cells were allowed to reach-80% confluency in 12-well plates. […] At various time points, plates were taken out of the incubator and kept on ice. Cell monolayers were first washed once with ice-cold PBS before lysis with 250 μI of Pierce RIPA buffer (ThermoFisher Scientific, Rockford, IL) or use 50 mM Tris-HCl (pH 7.6), 150 mM NaCl, 10% Glycerol, 1% NP-40 containing protease/Phosphatase inhibitor cocktail (100×) (Cell signaling, #5872). Lysates were collected and mixed with 4× Bolt LDS Sample Buffer (Novex, Carlsbad, CA) in the presence of Halt protease inhibitors and phosphatase inhibitor cocktail (ThermoFisher scientific, #NP0007). The samples were subjected to SDS-PAGE (Bolt 4-12% Bis-Tris Plus, Invitrogen) using Bolt MES SDS running buffer or NuPAGE 3-8% Tris-Acetate gel using Tris-Acetate SDS running buffer (Novex). HUVECs (passage 6-8) were plated in EBM-2 basal medium (Lonza) with 0.2% FBS. Following overnight culture, cells were serum-starved in EBM-2 medium for 4 hrs prior to treatment with 50 ng/ml of VEGF165 or vehicle controls for various lengths. Equal amounts of protein lysates were analyzed by SDS-PAGE and blotted with the indicated antibodies. Proteins were transferred using Tris-Glycine buffer with 20% Methanol (Proteonomics grade) (Apex BioResearch Products). […]

[7] = system: brain infarction; test: Middle cerebral artery occlusion (MCAO) stroke model; type: in vivo, mouse

SMILES: N[C@H](C=O)[C@@H](O)[C@H](O)[C@H](O)CO [ManN, 2-Amino-2-deoxy-D-mannose]
- fucose, mannose, galactose and Neu5Ac content [1]: significant decrease
- growth of Calu6 [2]: did not promote growth
- toxicity on 4T1 cells ([3]; 5 mM): significant toxicity
- growth of 4T1 ([3]; ManN, MTS): did not promote growth
- proliferation of NIH3T3 cells [4]: no increases in proliferation
- proliferation of human dermal fibroblasts [5]: no increases in proliferation
- molecular mass change of bFGFR 1 or β1 integrin in non-ECs [6]: could induce molecular mass change
- histopathological alterations (H&E), Day 4 ([7]; 40 mg ManN Day -1, 1, 3): ameliorates histopathological alterations
- vascular density (CD31) in cerebral cortex affected by infarct, Day 6 ([7]; 40 mg ManN Day -1, 1, 3, 5, p<0.001): significantly increased vascular density
- infarction area, Day 4 MRI, first and second experiment ([7]; 40 mg ManN oral gavage Day -1 and every 48 hours, 4 animals per group): markedly smaller infarction area
- overall infarction area, combined analysis ([7]; 4 days post-acute ischemic event, FIG. 12D): statistically significant effect of ManN treatment in reducing overall infarction area
- TTC staining of coronal slices at Day 4 ([7]; FIG. 13C): lack of large regions of white staining
- CNS infarct volume at Day 4 (MRI), additional animals ([7]; p<0.001 vs vehicle, FIG. 13B): significantly reduced CNS infarct volume
- infarct area on Day 2 and Day 4 (MRI images) ([7]; vs vehicle (H2O), FIG. 13A): Reduction in infarct area is noticeable
